Measurements as given in patent US20150011569A1, “NOVEL P13K p110 INHIBITORS AND METHODS OF USE THEREOF” (PHILADELPHIA HEALTH & EDUCATION CORPORATION d/b/a Drexel …, priority 2011, published 2015).

Experiments:
influenza virus = experiment: In vitro anti-viral assay in A549 cells (plaque assay, viral mRNA); type: cell-based
[1] = tested on: virulent influenza virus strain; design: species or system mice; details: mouse, in vivo
PI3K p110δ = molecular target: T1, PI3K p110δ (Homo sapiens, UniProt O00329); experiment: PI3K isoform inhibition in vitro, p110δ; type: biochemical; details: class I PI3K isoform δ
T1 construct: purchased Reaction Biology Corporation (RBC) Malvern, Pa
From the text: (§1) A PI3K assay can be used to evaluate the activity of the prototype molecule. Reaction Biology Corporation (RBC) Malvern, Pa. offers Class I PI3Ks (PI3Kα, PI3Kβ, PI3Kγ, and PI3Kδ). The PIP3 product is detected by displacement of biotin-PIP3 from an energy transfer complex consisting of Europium labeled anti-GST monoclonal antibody, a GST-tagged pleckstrin homology (PH) domain, biotinylated PIP3 and Streptavidin-Allophycocyanin (APC). Excitation of Europium in the complex results in an energy transfer to the APC and a fluorescent emission at 665 nm. The PIP3 product formed displaces biotin-PIP3 from the complex resulting in a loss of energy transfer and thus a decrease in signal.

PI3K p110α = molecular target: T2, PI3K p110α (Homo sapiens, UniProt P42336); experiment: PI3K isoform inhibition in vitro, p110α; type: biochemical; details: class I PI3K isoform α
T2 construct: purchased Reaction Biology Corporation (RBC) Malvern, Pa
From the text: as §1

PI3K p110β = molecular target: T3, PI3K p110β (Homo sapiens, UniProt P42338); experiment: PI3K isoform inhibition in vitro, p110β; type: biochemical; details: class I PI3K isoform β
T3 construct: purchased Reaction Biology Corporation (RBC) Malvern, Pa
From the text: as §1

PI3K p110γ = molecular target: T4, PI3K p110γ (Homo sapiens, UniProt P48736); experiment: PI3K isoform inhibition in vitro, p110γ; type: biochemical; details: class I PI3K isoform γ
T4 construct: purchased Reaction Biology Corporation (RBC) Malvern, Pa
From the text: as §1

T4 sequence (P48736 whole entry, canonical isoform): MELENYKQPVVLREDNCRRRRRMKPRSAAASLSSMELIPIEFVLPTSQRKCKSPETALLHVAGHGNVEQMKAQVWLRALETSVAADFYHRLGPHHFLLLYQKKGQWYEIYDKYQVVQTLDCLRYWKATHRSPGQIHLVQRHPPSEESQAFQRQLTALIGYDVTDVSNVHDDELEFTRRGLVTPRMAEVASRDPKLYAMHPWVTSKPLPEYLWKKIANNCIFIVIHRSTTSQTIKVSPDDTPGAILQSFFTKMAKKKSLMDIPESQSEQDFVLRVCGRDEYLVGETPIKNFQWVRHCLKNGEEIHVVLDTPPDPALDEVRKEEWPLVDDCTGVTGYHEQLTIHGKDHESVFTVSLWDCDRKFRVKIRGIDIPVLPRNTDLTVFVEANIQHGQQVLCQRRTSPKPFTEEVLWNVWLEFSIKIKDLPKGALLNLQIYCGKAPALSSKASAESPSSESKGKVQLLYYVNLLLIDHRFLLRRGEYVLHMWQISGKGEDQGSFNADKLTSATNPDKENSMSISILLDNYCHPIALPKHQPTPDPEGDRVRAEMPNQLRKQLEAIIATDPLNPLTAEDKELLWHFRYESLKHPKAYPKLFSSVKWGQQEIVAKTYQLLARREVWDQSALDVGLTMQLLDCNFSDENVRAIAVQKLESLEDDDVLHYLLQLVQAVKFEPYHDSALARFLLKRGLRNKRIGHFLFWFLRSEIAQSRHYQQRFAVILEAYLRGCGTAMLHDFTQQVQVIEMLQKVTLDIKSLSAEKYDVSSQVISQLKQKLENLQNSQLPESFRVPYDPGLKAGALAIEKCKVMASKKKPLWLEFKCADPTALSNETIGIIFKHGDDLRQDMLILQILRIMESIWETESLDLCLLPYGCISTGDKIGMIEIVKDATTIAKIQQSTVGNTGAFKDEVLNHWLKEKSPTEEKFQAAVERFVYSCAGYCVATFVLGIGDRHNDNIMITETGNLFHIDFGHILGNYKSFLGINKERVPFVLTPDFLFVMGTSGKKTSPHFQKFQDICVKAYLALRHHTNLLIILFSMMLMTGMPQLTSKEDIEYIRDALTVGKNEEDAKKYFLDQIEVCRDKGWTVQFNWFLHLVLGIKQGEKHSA
T1 sequence (O00329 whole entry, canonical isoform): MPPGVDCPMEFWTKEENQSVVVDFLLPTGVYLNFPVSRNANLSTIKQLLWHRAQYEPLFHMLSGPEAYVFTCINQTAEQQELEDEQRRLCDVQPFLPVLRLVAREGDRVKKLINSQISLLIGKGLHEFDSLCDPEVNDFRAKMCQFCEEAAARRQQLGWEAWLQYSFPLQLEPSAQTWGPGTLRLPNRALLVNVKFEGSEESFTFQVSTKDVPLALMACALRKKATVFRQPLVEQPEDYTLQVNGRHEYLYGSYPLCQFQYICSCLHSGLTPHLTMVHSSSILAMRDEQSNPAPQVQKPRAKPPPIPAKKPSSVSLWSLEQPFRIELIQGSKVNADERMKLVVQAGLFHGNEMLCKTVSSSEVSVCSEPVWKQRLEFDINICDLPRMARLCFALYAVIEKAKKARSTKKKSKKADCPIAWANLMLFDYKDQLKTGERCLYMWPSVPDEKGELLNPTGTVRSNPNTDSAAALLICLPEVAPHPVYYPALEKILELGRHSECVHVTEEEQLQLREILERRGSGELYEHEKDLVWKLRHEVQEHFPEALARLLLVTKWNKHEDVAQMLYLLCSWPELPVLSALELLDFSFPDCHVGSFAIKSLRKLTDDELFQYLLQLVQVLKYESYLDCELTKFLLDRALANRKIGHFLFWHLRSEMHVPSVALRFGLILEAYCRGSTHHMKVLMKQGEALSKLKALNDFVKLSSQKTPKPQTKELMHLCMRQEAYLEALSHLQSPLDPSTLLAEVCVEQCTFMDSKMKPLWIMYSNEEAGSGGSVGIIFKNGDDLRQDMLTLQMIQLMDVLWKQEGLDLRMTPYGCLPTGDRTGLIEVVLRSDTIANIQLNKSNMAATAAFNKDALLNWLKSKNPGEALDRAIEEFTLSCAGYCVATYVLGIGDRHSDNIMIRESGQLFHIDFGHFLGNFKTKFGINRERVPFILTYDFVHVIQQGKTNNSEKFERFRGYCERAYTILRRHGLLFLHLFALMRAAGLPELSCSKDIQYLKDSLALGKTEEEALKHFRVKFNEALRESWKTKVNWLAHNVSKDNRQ
T1 sequence (P27986 whole entry partner, canonical isoform): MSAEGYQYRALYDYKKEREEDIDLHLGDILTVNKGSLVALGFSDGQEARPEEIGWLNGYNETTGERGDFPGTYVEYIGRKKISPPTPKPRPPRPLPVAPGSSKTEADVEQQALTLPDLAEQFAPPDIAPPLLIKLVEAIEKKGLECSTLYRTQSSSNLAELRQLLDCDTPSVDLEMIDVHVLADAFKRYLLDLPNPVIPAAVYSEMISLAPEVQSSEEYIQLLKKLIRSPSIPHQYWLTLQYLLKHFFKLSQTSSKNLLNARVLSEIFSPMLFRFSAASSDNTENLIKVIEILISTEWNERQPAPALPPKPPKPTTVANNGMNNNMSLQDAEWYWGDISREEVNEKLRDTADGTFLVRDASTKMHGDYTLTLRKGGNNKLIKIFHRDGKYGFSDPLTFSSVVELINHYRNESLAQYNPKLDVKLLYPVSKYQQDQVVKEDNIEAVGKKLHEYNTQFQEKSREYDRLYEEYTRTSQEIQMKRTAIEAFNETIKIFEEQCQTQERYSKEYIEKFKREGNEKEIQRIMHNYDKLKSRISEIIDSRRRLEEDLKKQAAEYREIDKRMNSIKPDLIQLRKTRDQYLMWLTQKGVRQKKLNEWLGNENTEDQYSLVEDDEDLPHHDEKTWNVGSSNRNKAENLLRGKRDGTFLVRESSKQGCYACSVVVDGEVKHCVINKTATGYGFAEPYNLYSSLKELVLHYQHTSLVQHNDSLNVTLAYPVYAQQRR
T3 sequence (P42338 whole entry, canonical isoform): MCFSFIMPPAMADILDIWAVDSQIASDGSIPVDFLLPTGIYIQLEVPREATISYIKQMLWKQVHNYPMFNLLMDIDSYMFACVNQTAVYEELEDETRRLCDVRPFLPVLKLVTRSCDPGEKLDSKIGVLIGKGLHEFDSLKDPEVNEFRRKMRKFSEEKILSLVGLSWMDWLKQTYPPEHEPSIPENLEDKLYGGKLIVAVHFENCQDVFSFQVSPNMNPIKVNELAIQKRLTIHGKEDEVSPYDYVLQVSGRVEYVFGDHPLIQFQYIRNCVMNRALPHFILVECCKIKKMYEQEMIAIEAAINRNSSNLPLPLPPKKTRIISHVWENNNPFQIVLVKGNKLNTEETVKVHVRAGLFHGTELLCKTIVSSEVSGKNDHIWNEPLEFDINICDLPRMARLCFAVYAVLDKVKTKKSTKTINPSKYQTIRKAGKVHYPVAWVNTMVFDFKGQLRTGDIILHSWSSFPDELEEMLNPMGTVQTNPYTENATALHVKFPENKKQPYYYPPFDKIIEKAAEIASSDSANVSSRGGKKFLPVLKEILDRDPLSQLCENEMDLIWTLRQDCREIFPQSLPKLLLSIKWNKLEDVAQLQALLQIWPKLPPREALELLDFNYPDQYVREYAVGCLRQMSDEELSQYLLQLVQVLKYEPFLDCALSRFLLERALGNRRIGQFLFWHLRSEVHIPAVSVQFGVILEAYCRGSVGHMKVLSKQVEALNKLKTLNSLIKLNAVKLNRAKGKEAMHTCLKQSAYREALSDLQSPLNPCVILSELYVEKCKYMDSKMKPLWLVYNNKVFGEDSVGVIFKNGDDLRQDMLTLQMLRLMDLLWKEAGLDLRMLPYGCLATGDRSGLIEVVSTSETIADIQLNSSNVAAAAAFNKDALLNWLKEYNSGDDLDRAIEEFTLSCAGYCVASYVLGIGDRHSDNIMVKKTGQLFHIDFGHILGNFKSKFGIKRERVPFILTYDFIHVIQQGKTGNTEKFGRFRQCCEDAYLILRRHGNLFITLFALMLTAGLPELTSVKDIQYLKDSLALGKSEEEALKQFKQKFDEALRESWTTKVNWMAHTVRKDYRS
T3 sequence (P27986 whole entry partner, canonical isoform): as the sequence (P27986 whole entry partner, canonical isoform) above
T2 sequence (P42336 whole entry, canonical isoform): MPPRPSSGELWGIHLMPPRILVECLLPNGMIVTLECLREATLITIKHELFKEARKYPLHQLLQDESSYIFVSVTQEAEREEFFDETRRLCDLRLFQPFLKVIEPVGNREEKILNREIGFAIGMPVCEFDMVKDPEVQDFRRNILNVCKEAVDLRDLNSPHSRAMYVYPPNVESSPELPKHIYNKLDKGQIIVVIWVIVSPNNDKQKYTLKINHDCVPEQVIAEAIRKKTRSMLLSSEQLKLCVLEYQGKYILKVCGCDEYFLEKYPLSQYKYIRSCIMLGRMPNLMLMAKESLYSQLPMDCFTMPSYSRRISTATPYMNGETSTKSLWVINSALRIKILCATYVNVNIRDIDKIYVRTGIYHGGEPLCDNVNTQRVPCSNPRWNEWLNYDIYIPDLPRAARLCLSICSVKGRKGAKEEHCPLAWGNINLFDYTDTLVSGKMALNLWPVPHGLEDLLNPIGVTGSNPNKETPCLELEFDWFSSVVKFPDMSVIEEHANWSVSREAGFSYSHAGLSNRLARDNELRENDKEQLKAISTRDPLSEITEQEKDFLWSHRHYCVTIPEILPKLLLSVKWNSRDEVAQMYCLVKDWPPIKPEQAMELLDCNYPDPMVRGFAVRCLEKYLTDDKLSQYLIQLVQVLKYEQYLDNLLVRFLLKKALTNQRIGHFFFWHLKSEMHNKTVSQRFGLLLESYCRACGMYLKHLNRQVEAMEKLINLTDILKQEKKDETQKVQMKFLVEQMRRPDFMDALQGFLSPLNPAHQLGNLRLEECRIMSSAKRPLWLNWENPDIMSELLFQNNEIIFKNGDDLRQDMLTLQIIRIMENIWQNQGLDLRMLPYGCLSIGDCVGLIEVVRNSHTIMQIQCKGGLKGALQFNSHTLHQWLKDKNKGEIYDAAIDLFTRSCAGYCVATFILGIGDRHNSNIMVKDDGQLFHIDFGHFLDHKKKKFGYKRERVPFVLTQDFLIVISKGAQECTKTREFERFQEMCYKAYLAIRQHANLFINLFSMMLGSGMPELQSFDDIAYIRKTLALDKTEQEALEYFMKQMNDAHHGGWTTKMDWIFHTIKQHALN
T2 sequence (P27986 whole entry partner, canonical isoform): as the sequence (P27986 whole entry partner, canonical isoform) above

| SMILES | viral replication in A549 lung epithelial cells (influenza virus) | protection from lethal challenge [1] | IC50 (PI3K p110δ) [µM] | IC50 (PI3K p110α) [µM] | IC50 (PI3K p110β) [µM] | IC50 (PI3K p110γ) [µM] |
| --- | --- | --- | --- | --- | --- | --- |
| Cc1ccccc1-n1c(Cn2cnc3c(N)ncnc32)nc2cccc(C)c2c1=O [IC87114] | decreased | protected animals from lethal challenge | – | – | – | – |
| Cc1ccccc1-c1nc2ncccc2cc1Cn1cnc2c(N)ncnc21 [compound 7b, 9-((2-(2-methylphenyl)-1,8-naphthyridin-3-yl)methyl)-9H-purin-6-amine] | – | – | 1.3 | > 100 | > 100 | 40 |
